Assay results from US11453642B2, “Oxygenated amino- or ammonium-containing sulfonic acid, phosphonic acid and carboxylic acid derivatives and their medical use” (GRI BIO, INC., priority 2011, dated 2022).
Read-outs that look alike come from different tables or passages of the source.

Legend:
[1] = Pharmacokinetic study after a single oral administration to mice; assay type: in vivo; conditions: for cmax / tmax: single oral 100 mg/kg in 0.5% methylcellulose; for clast: concentration at last sampling time point; for AUC0-inf: extrapolated to infinity; for tlast: time of last sampling time point; for AUC0-t: time zero to tlast
Protocol: The aim of the study was to evaluate pharmacokinetic (PK) properties of five different batches including anhydrates and monohydrates of the crystal form A of compound 1a (cf. Table 1 in Example 5) after a single oral administration to mice. Three of the forms were anhydrous and two were monohydrates.
Compound 1a was administered as a suspension of 0.5% methyl cellulose (Sigma-Aldrich) in water at a dose of 100 mg/kg (10 ml/kg) by oral gavage to non-fasted female Balb/c mice (n=3).
Blood was collected by decapitation at 0.5, 1, 2, 4, 8, 12, 24, and 48 h after administration. Blood plasma was isolated by centrifugation at 4° C. (20,000×g for 10 min), transferred to microtubes containing lithium-heparin and frozen in aliquots at −70° C. until assayed by mass-spectrometry. Mean plasma concentration-time profiles (semi-logarithmic) of the five polymorphic crystal forms of compound 1a are shown in FIG. 6.
For PK evaluation, summary statistics and plotting of concentration/time curves, all values below the lower limit of quantification (LLOQ) were set to zero.

[2] = tested on: RBL-2H3 cells; experiment: Maximum tolerated concentration (cytotoxicity by lactate dehydrogenase release); assay type: cell-based, Rat; conditions: for MTC (maximum tolerated concentration): highest concentration not causing cytotoxicity (LDH release), RBL-2H3 cells; for SI (safety index): ratio between MTC and IC50
From the text: The safety index (SI) of a test compound is the ratio between the maximum tolerated concentration and the IC50 and is used as a measure of the relative safety of the test compound.

[3] = female Balb/c mice, plasma, 100 mg/kg
[4] = female Balb/c mice, single oral 100 mg/kg, 100 mg/kg
[5] = female Balb/c mice, single oral 100 mg/kg, terminal half-life, 100 mg/kg
[6] = female Balb/c mice, single oral 100 mg/kg

CCCCCCCCCCCCCCCCN(C)CC(O)CS(=O)(=O)O (centres unmarked) [2208-CF/1, 2-hydroxy-3-(N-methylhexadecylammonio)propane-sulfonate]
overall exposure ([1]; compared among the five forms, single oral 100 mg/kg): highest | cmax [1, 3]: 1003 ng/mL | tmax [1, 3]: 1.0 h | MRT [1, 4]: 5.0 h | clast [1, 4]: 1.1 ng/mL | AUC0-inf [1, 4]: 4412 ng·h/mL | t1/2 [1, 5]: 7.3 h | tlast [1, 4]: 48.0 h | AUC0-t [1, 4]: 4400 ng·h/mL

CCCCCCCCCCCCCCCCN(C)CC(O)CS(=O)(=O)O (centres unmarked) [2338-CF/30, 2-hydroxy-3-(N-methylhexadecylammonio)propane-sulfonate]
tmax [1, 3]: 1.0 h | clast [1, 4]: 1.8 ng/mL | tlast [1, 4]: 48.0 h | cmax ([1]; female, Balb/c, mouse, plasma, po, 100 mg/kg, female Balb/c mice, plasma, read-out: cmax): 1060 ng/mL | AUC0-inf ([1]; female, Balb/c, mouse, plasma, po, 100 mg/kg, female Balb/c mice, single oral 100 mg/kg, read-out: AUC0-inf): 3140 ng·h/mL | MRT ([1]; female, Balb/c, mouse, plasma, po, 100 mg/kg, female Balb/c mice, single oral 100 mg/kg, read-out: MRT): 5.5 h | half-life ([1]; female, Balb/c, mouse, plasma, po, 100 mg/kg, female Balb/c mice, single oral 100 mg/kg, terminal half-life): 9.9 h | AUC0-t ([1]; female, Balb/c, mouse, plasma, po, 100 mg/kg, female Balb/c mice, single oral 100 mg/kg, read-out: AUC0-t): 3120 ng·h/mL

CCCCCCCCCCCCCCN(C)CC(O)CS(=O)(=O)O (centres unmarked) [Compound 1b, 2-hydroxy-3-(N-methyltetradecylammonio)propanesulfonate]
MTC (maximum tolerated concentration) [2]: 100 µM | SI (safety index) [2]: 19.6

CCCCCCCCCCCCCC[N+](C)(C)CC(CS(=O)(=O)[O-])OC (centres unmarked) [Compound 1d, 2-methoxy-3-(N,N-dimethyl-N-tetradecylammonio)-propane-1-sulfonate]
MTC (maximum tolerated concentration) [2]: 75 µM | SI (safety index) [2]: 22.7

CCCCCCCCCCCCCC[N+](C)(C)CC(CS(=O)(=O)[O-])OC(C)=O (centres unmarked) [Compound 1e, 2-acetoxy-3-(N,N-dimethyltetradecylammonio)propanesulfonate]
MTC (maximum tolerated concentration) [2]: 100 µM | SI (safety index) [2]: 25.6

CCCCCCCCCCCCCCCCN(C)CC(O)CS(=O)(=O)O (centres unmarked) [KP-0722.11, 2-hydroxy-3-(N-methylhexadecylammonio)propane-sulfonate]
cmax [1, 3]: 571 ng/mL | tmax [1, 3]: 2.0 h | MRT [1, 4]: 4.8 h | clast [1, 4]: 3.8 ng/mL | AUC0-inf [1, 4]: 3179 ng·h/mL | tlast [1, 4]: 24.0 h | AUC0-t [1, 4]: 3162 ng·h/mL

CCCCCCCCCCCCCCCCN(C)CC(O)CS(=O)(=O)O (centres unmarked) [KP-0726.11, 2-hydroxy-3-(N-methylhexadecylammonio)propane-sulfonate]
second plasma peak (time after administration) [1, 6]: 8 h | cmax [1, 3]: 759 ng/mL | tmax [1, 3]: 1.0 h | MRT [1, 4]: 5.5 h | clast [1, 4]: 1.2 ng/mL | AUC0-inf [1, 4]: 3758 ng·h/mL | t1/2 [1, 5]: 8.2 h | tlast [1, 4]: 48.0 h | AUC0-t [1, 4]: 3744 ng·h/mL

CCCCCCCCCCCCCCCCN(C)CC(O)CS(=O)(=O)O (centres unmarked) [TN-0382.11, 2-hydroxy-3-(N-methylhexadecylammonio)propane-sulfonate]
second plasma peak (time after administration) [1, 6]: 8 h | cmax [1, 3]: 627 ng/mL | tmax [1, 3]: 1.0 h | MRT [1, 4]: 5.9 h | clast [1, 4]: 3.4 ng/mL | AUC0-inf [1, 4]: 3547 ng·h/mL | tlast [1, 4]: 24.0 h | AUC0-t [1, 4]: 3535 ng·h/mL
